# Measurements from patent US20220324815A1, “2-PHENOXY-PYRIMIDINE DERIVATIVES AS HERBICIDAL COMPOUNDS” (SYNGENTA CROP PROTECTION AG, priority 2019, published 2022).
# Key:
# Assay type in all cases: in vivo
# Conditions in all cases: 250 g/ha unless otherwise stated, evaluated after 13 days, five-point scale
# [1] = tested on: Amaranthus retoflexus (AMARE); experiment: Test 1 glasshouse herbicide test, post-emergence application (Table B1)
# Method in brief: (§1)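 Score is % phytotoxicity after 13 days, binned 1 (0–20%) to 5 (81–100%). Compound given at 250 g/ha unless stated, as acetone/water (50:50) spray with 0.5% Tween 20, one day post-sowing (pre-emergence) or after 8 days' growth (post-emergence); glasshouse at 24/16 °C day/night, 14 h light, 65% humidity.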
# [2] = tested on: Echinochloa crus-galli (ECHCG); experiment: as above
# Method in brief: as §1
# [3] = tested on: Ipomoea hederacea (IPOHE); experiment: as above
# Method in brief: as §1
# [4] = tested on: Setaria faberi (SETFA); experiment: as above
# Method in brief: as §1
# [5] = tested on: Amaranthus retoflexus (AMARE); experiment: Test 1 glasshouse herbicide test, pre-emergence application (Table B2)
# Method in brief: as §1
# [6] = tested on: Echinochloa crus-galli (ECHCG); experiment: as above
# Method in brief: as §1
# [7] = tested on: Ipomoea hederacea (IPOHE); experiment: as above
# Method in brief: as §1
# [8] = tested on: Setaria faberi (SETFA); experiment: as above
# Method in brief: as §1
SMILES,"% phytotoxicity AMARE, post-emergence application [1]","% phytotoxicity ECHCG, post-emergence application [2]","% phytotoxicity IPOHE, post-emergence application [3]","% phytotoxicity SETFA, post-emergence application [4]","% phytotoxicity AMARE, pre-emergence application [5]","% phytotoxicity ECHCG, pre-emergence application [6]","% phytotoxicity IPOHE, pre-emergence application [7]","% phytotoxicity SETFA, pre-emergence application [8]"
N#Cc1cccc(Oc2ncc(Cl)cn2)c1S(=O)(=O)CCC(F)F [Compound A97],5 (5=81 to 100%),4 (4=61 to 80%),4 (4=61 to 80%),2 (2=21 to 40%),5 (5=81 to 100%),4 (4=61 to 80%),5 (5=81 to 100%),4 (4=61 to 80%)
N#Cc1cccc(Oc2ncc(Cl)cn2)c1[S+]([O-])CCC(F)F (stereo not shown) [Compound A98],5 (5=81 to 100%),4 (4=61 to 80%),4 (4=61 to 80%),4 (4=61 to 80%),5 (5=81 to 100%),5 (5=81 to 100%),5 (5=81 to 100%),5 (5=81 to 100%)
N#Cc1cccc(Oc2ncc(Cl)cn2)c1SCCC(F)F [Compound A99],5 (5=81 to 100%),5 (5=81 to 100%),4 (4=61 to 80%),4 (4=61 to 80%),5 (5=81 to 100%),5 (5=81 to 100%),5 (5=81 to 100%),5 (5=81 to 100%)
N#Cc1cccc(Oc2ncc(Cl)cn2)c1SCCCC(F)F [Compound A100],5 (5=81 to 100%),5 (5=81 to 100%),5 (5=81 to 100%),4 (4=61 to 80%),5 (5=81 to 100%),5 (5=81 to 100%),5 (5=81 to 100%),5 (5=81 to 100%)
N#Cc1cccc(Oc2ncc(Cl)cn2)c1[S+]([O-])CCCC(F)F (stereo not shown) [Compound A101],5 (5=81 to 100%),4 (4=61 to 80%),4 (4=61 to 80%),4 (4=61 to 80%),5 (5=81 to 100%),5 (5=81 to 100%),5 (5=81 to 100%),5 (5=81 to 100%)
N#Cc1cccc(Oc2ncc(Cl)cn2)c1S(=O)(=O)CCCC(F)F [Compound A102],5 (5=81 to 100%),4 (4=61 to 80%),4 (4=61 to 80%),4 (4=61 to 80%),5 (5=81 to 100%),5 (5=81 to 100%),5 (5=81 to 100%),5 (5=81 to 100%)
O=S(=O)(CCCC(F)F)c1c(Cl)cccc1Oc1ncc(Cl)cn1 [Compound A103],4 (4=61 to 80%),1 (1=0 to 20%),2 (2=21 to 40%),1 (1=0 to 20%),4 (4=61 to 80%),2 (2=21 to 40%),4 (4=61 to 80%),2 (2=21 to 40%)
[O-][S+](CCCC(F)F)c1c(Cl)cccc1Oc1ncc(Cl)cn1 (stereo not shown) [Compound A104],5 (5=81 to 100%),5 (5=81 to 100%),5 (5=81 to 100%),5 (5=81 to 100%),5 (5=81 to 100%),5 (5=81 to 100%),5 (5=81 to 100%),5 (5=81 to 100%)
